Numbered stars: 1 amine (or outer) side, 2 acyl side, 3 side chain; on linkers, the order of the positions; unused ones are H or OH. Peptide text beside a SMILES is read from it. * marks the point of attachment. C20 diacid = O=C(O)CCCCCCCCCCCCCCCCCCC(=O)*; γGlu = O=C(O)[C@H](CCC(=O)[*:2])N[*:1]; AEEA = NCCOCCOCC(=O)O
How the values were obtained:
[1] = tested on: Rattus norvegicus; experiment: Reduction in food intake in Sprague-Dawley rat at 3 nmol/kg measured 24 to 48 hrs post dose relative to control; format: functional; design: scale not given: the % may be the effect or the level left
[2] = biological target: T1, Amylin receptor AMY3; CALCR/RAMP3 (Homo sapiens, UniProt O60896+P30988); experiment: Agonist activity at human amylin receptor expressed in BHK570 cells co-expressing RAMP3 assessed as increase in intracellular cAMP concentration incubated for 3 hrs in absence of albumin by CRE luciferase reporter gene assay; format: functional, cell-based
T1 sequence (P30988 whole entry): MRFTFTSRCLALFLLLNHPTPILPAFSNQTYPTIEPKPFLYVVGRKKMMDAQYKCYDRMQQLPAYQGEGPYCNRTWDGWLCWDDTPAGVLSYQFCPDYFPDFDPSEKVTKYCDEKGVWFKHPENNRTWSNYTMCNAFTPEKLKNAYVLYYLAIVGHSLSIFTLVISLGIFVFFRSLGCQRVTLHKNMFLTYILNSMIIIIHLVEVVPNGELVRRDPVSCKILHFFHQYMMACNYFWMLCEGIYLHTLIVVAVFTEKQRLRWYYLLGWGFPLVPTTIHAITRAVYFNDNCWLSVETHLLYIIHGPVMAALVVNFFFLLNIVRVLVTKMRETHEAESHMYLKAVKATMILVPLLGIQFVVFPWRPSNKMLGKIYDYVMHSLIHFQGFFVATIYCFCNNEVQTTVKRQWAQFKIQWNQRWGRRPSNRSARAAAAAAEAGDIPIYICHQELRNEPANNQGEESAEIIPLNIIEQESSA
T1 sequence (O60896 whole entry): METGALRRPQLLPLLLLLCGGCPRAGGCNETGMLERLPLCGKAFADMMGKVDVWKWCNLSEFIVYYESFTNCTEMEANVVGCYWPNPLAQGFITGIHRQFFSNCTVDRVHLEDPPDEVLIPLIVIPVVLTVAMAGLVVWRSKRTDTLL

[3] = biological target: T2, Calcitonin receptor (Homo sapiens, UniProt P30988); experiment: Agonist activity at human calcitonin receptor expressed in BHK570 cells assessed as increase in intracellular cAMP concentration incubated for 3 hrs in absence of albumin by CRE luciferase reporter gene assay; format: functional, cell-based
T2 sequence (P30988 whole entry): T1 sequence (P30988 whole entry)

[4] = biological target: T1, Amylin receptor AMY3; CALCR/RAMP3; experiment: Agonist activity at human amylin receptor expressed in BHK570 cells co-expressing RAMP3 assessed as increase in intracellular cAMP concentration incubated for 3 hrs in presence of 10% FBS by CRE luciferase reporter gene assay; format: functional, cell-based
[5] = biological target: T2, Calcitonin receptor; experiment: Agonist activity at human calcitonin receptor expressed in BHK570 cells assessed as increase in intracellular cAMP concentration incubated for 3 hrs in presence of 10% FBS by CRE luciferase reporter gene assay; format: functional, cell-based
[6] = Stability in pH 7.5 buffer assessed as lag time for fibril formation at 1 uM by Thioflavin T based fluorescence assay; format: physicochemical; conditions: pH 7.5, 1 µM
[7] = Stability in pH 7.5 buffer assessed as compound recovery at 1 uM by Thioflavin T based fluorescence assay; format: physicochemical; conditions: read-out: Drug recovery
[8] = Solubility in 100 mM glycylglycine buffer at pH 3.0 incubated for 18 hrs by UPLC analysis; format: physicochemical
[9] = Solubility in 100 mM glycylglycine buffer at pH 4.0 incubated for 18 hrs by UPLC analysis; format: physicochemical
[10] = Solubility in 100 mM bistrispropane buffer at pH 6.0 incubated for 18 hrs by UPLC analysis; format: physicochemical
[11] = Solubility in 100 mM glycylglycine buffer at pH 5.0 incubated for 18 hrs by UPLC analysis; format: physicochemical
[12] = Solubility in 100 mM bistrispropane buffer at pH 6.5 incubated for 18 hrs by UPLC analysis; format: physicochemical
[13] = Solubility in 100 mM bistrispropane buffer at pH 7.0 incubated for 18 hrs by UPLC analysis; format: physicochemical
[14] = Solubility in 100 mM bistrispropane buffer at pH 7.5 incubated for 18 hrs by UPLC analysis; format: physicochemical
[15] = Solubility in 100 mM bistrispropane buffer at pH 8.0 incubated for 18 hrs by UPLC analysis; format: physicochemical
[16] = biological target: T1, Amylin receptor AMY3; CALCR/RAMP3; experiment: Displacement of [125I]-labeled rat amylin from human amylin receptor expressed in BHK tkts13 whole cells co-expressing RAMP3 incubated for 60 mins by scintillation proximity assay; format: cell-based

EC50 [2] [nM] | EC50 [3] [nM] | EC50 [4] [nM] | EC50 [5] [nM] | Time [6] [h] | remaining at 1 µM [7] [%] | solubility at 18 h [8] [µM] | solubility at 18 h [9] [µM] | solubility at 18 h [10] [µM] | solubility at 18 h [11] [µM] | solubility at 18 h [12] [µM] | solubility at 18 h [13] [µM] | solubility at 18 h [14] [µM] | solubility at 18 h [15] [µM] | IC50 [16] [nM] | SMILES | Activity [1] [%]
0.057 | 0.065 | 0.105 | 0.054 | 0 | 23 | ≥ 200 |  |  |  |  |  |  |  |  | CC(C)C[C@H](NC(=O)CNC(=O)[C@H](CO)NC(=O)[C@H](C)NC(=O)CC[C@H](NC(=O)CCCCCCCCCCCCCCCCCCC(=O)O)C(=O)O)C(=O)N[C@@H](CO)C(=O)N[C@H](C(=O)N[C@@H](C)C(=O)N[C@H](C(=O)N[C@@H](CC(C)C)C(=O)NCC(=O)N[C@@H](CCCNC(=N)N)C(=O)N[C@@H](CC(C)C)C(=O)N[C@@H](CO)C(=O)N[C@@H](CCC(N)=O)C(=O)N[C@@H](CCC(=O)O)C(=O)N[C@@H](CC(C)C)C(=O)N[C@@H](Cc1cnc[nH]1)C(=O)N[C@@H](CCC(=O)O)C(=O)N[C@@H](CC(C)C)C(=O)N[C@@H](CCC(N)=O)C(=O)N[C@H](C(=O)N[C@@H](Cc1ccc(O)cc1)C(=O)N1CCC[C@H]1C(=O)N[C@@H](CCCNC(=N)N)C(=O)N[C@H](C(=O)N[C@@H](CCC(=O)O)C(=O)N[C@H](C(=O)NCC(=O)N[C@@H](CO)C(=O)NCC(=O)N[C@H](C(=O)N[C@@H](Cc1ccc(O)cc1)C(N)=O)[C@@H](C)O)[C@@H](C)O)[C@@H](C)O)[C@@H](C)O)C(C)C)[C@@H](C)O | 15
0.142 | 0.066 | 0.435 | 0.239 | > 45 | 100 | ≥ 200 | ≥ 200 | ≥ 200 | ≥ 200 | ≥ 200 | ≥ 200 | ≥ 200 | ≥ 200 | 4.36 | CC(C)C[C@H](NC(=O)[C@H](C)NC(=O)[C@H](C)NC(=O)[C@@H](NC(=O)[C@H](CO)NC(=O)[C@H](CC(C)C)NC(=O)[C@H](CCC(=O)O)NC(=O)[C@H](CO)NC(=O)[C@H](C)NC(=O)CC[C@H](NC(=O)CCCCCCCCCCCCCCCCCCC(=O)O)C(=O)O)[C@@H](C)O)C(=O)NCC(=O)N[C@@H](CCCNC(=N)N)C(=O)N[C@@H](CC(C)C)C(=O)N[C@@H](CO)C(=O)N[C@@H](C)C(=O)N[C@@H](CCC(=O)O)C(=O)N[C@@H](CC(C)C)C(=O)N[C@@H](Cc1cnc[nH]1)C(=O)N[C@@H](CCC(=O)O)C(=O)N[C@@H](CC(C)C)C(=O)N[C@@H](C)C(=O)N[C@H](C(=O)N[C@@H](CC(C)C)C(=O)N1CCC[C@H]1C(=O)N[C@@H](CCCNC(=N)N)C(=O)N[C@H](C(=O)N[C@@H](CCC(=O)O)C(=O)N[C@H](C(=O)NCC(=O)N[C@@H](CO)C(=O)NCC(=O)N[C@@H](CO)C(=O)NCC(N)=O)[C@@H](C)O)[C@@H](C)O)[C@@H](C)O ({C20 diacid-γGlu}-ASELSTAALGRLSAELHELATLPRTETGSGSG-NH2) | 

Further lines, the compound ahead of its results:

SMILES | EC50 [2] [nM] | EC50 [3] [nM] | EC50 [4] [nM] | EC50 [5] [nM] | Time [6] [h] | remaining at 1 µM [7] [%] | solubility at 18 h [8] [µM] | solubility at 18 h [9] [µM] | solubility at 18 h [10] [µM] | solubility at 18 h [11] [µM] | solubility at 18 h [12] [µM] | solubility at 18 h [13] [µM] | solubility at 18 h [14] [µM] | solubility at 18 h [15] [µM] | IC50 [16] [nM] | Activity [1] [%]
CC(C)C[C@H](NC(=O)[C@H](C)NC(=O)[C@H](C)NC(=O)[C@@H](NC(=O)[C@H](CO)NC(=O)[C@H](CC(C)C)NC(=O)[C@H](CCC(=O)O)NC(=O)[C@H](CO)NC(=O)[C@H](C)NC(=O)COCCOCCNC(=O)COCCOCCNC(=O)COCCOCCNC(=O)COCCOCCNC(=O)COCCOCCNC(=O)CC[C@H](NC(=O)CCCCCCCCCCCCCCCCCCC(=O)O)C(=O)O)[C@@H](C)O)C(=O)NCC(=O)N[C@@H](CCCNC(=N)N)C(=O)N[C@@H](CC(C)C)C(=O)N[C@@H](CO)C(=O)N[C@@H](C)C(=O)N[C@@H](CCC(=O)O)C(=O)N[C@@H](CC(C)C)C(=O)N[C@@H](Cc1cnc[nH]1)C(=O)N[C@@H](CCC(=O)O)C(=O)N[C@@H](CC(C)C)C(=O)N[C@@H](C)C(=O)N[C@H](C(=O)N[C@@H](CC(C)C)C(=O)N1CCC[C@H]1C(=O)N[C@@H](CCCNC(=N)N)C(=O)N[C@H](C(=O)N[C@@H](CCC(=O)O)C(=O)N[C@H](C(=O)NCC(=O)N[C@@H](CO)C(=O)NCC(=O)N[C@@H](CO)C(=O)N1CCC[C@H]1C(N)=O)[C@@H](C)O)[C@@H](C)O)[C@@H](C)O ({C20 diacid-γGlu-AEEA-AEEA-AEEA-AEEA-AEEA}-ASELSTAALGRLSAELHELATLPRTETGSGSP-NH2) | 0.015 | 0.01 | 0.066 | 0.027 | > 45 | 100 | ≥ 200 | ≥ 200 | ≥ 200 | ≥ 200 | ≥ 200 | ≥ 200 | ≥ 200 | ≥ 200 |  | 
CC(C)C[C@H](NC(=O)[C@H](C)NC(=O)[C@H](C)NC(=O)[C@@H](NC(=O)[C@H](CO)NC(=O)[C@H](CC(C)C)NC(=O)[C@H](CCC(=O)O)NC(=O)[C@H](CO)NC(=O)[C@H](C)NC(=O)CC[C@H](NC(=O)CCCCCCCCCCCCCCCCCCC(=O)O)C(=O)O)[C@@H](C)O)C(=O)NCC(=O)N[C@@H](CCCCN)C(=O)N[C@@H](CC(C)C)C(=O)N[C@@H](CO)C(=O)N[C@@H](C)C(=O)N[C@@H](CCC(=O)O)C(=O)N[C@@H](CC(C)C)C(=O)N[C@@H](Cc1cnc[nH]1)C(=O)N[C@@H](CCC(=O)O)C(=O)N[C@@H](CC(C)C)C(=O)N[C@@H](C)C(=O)N[C@H](C(=O)N[C@@H](Cc1ccc(O)cc1)C(=O)N1CCC[C@H]1C(=O)N[C@@H](CCCCN)C(=O)N[C@H](C(=O)N[C@@H](CCC(=O)O)C(=O)N[C@H](C(=O)NCC(=O)N[C@@H](CO)C(=O)NCC(=O)N[C@@H](CO)C(=O)N[C@@H](Cc1ccc(O)cc1)C(N)=O)[C@@H](C)O)[C@@H](C)O)[C@@H](C)O ({C20 diacid-γGlu}-ASELSTAALGKLSAELHELATYPKTETGSGSY-NH2) | 0.051 | 0.037 | 0.093 | 0.073 | 0 | 100 | ≥ 200 | ≥ 200 | ≥ 200 | ≥ 200 | ≥ 200 | ≥ 200 | ≥ 200 | ≥ 200 | 0.588 | 
CC(C)C[C@H](NC(=O)[C@H](C)NC(=O)[C@H](C)NC(=O)[C@@H](NC(=O)[C@H](CO)NC(=O)[C@H](CC(C)C)NC(=O)[C@H](CCC(=O)O)NC(=O)[C@H](CO)NC(=O)[C@H](C)NC(=O)CC[C@H](NC(=O)CCCCCCCCCCCCCCCCCCC(=O)O)C(=O)O)[C@@H](C)O)C(=O)NCC(=O)N[C@@H](CCCNC(=N)N)C(=O)N[C@@H](CC(C)C)C(=O)N[C@@H](CO)C(=O)N[C@@H](C)C(=O)N[C@@H](CCC(=O)O)C(=O)N[C@@H](CC(C)C)C(=O)N[C@@H](Cc1cnc[nH]1)C(=O)N[C@@H](CCC(=O)O)C(=O)N[C@@H](CC(C)C)C(=O)N[C@@H](C)C(=O)N[C@H](C(=O)N[C@@H](CC(C)C)C(=O)N1CCC[C@H]1C(=O)N[C@@H](CCCNC(=N)N)C(=O)N[C@H](C(=O)N[C@@H](CCC(=O)O)C(=O)N[C@H](C(=O)NCC(=O)N[C@@H](CO)C(=O)NCC(=O)N[C@@H](CO)C(=O)N[C@@H](Cc1ccccc1)C(N)=O)[C@@H](C)O)[C@@H](C)O)[C@@H](C)O ({C20 diacid-γGlu}-ASELSTAALGRLSAELHELATLPRTETGSGSF-NH2) | 0.05 | 0.04 | 0.094 | 0.073 | > 45 | 100 | ≥ 200 | ≥ 200 | ≥ 200 |  | ≥ 200 | ≥ 200 | ≥ 200 | ≥ 200 | 1.36 | 

From ChEMBL document CHEMBL4420076, “Amylin and calcitonin receptor agonist” (2017)
